Data: US8614221B2, “Inhibitors of Akt activity” (Merck Sharp & Dohme Corp., priority 2009, dated 2013)

Legend:
Akt1 kinase = target: T1, Akt1 kinase (Homo sapiens, UniProt P31749); assay: Akt kinase assay (HTRF, GSK-derived biotinylated peptide substrate); type: biochemical
T1 construct: a middle T tag was added to the 5′ end of the full length Akt1 gene; middle T tag (EYMPME) (N); biotin tag (from pS2neo vector); made in house; host or cells: Drosophila S2 cells
Description: (§1) Activated Akt isoforms and pleckstrin homology domain deletion constructs were assayed utilizing a GSK-derived biotinylated peptide substrate. The extent of peptide phosphorylation was determined by Homogeneous Time Resolved Fluorescence (HTRF) using a lanthanide chelate(Lance)-coupled monoclonal antibody specific for the phosphopeptide in combination with a streptavidin-linked allophycocyanin (SA-APC) fluorophore which will bind to the biotin moiety on the peptide. When the Lance and APC are in proximity (i.e. bound to the same phosphopeptide molecule), a non-radiative energy transfer takes place from the Lance to the APC, followed by emission of light from APC at 665 nm.
(§2) Materials required for the assay:
(§3) A. Activated Akt isozyme or pleckstrin homology domain deleted construct
(§4) B. Akt peptide substrate: GSK3α (S21) Peptide #3928 biotin-GGRARTSSFAEPG (SEQ. ID. NO. 15), Macromolecular Resources.
(§5) C. Lance labeled anti-phospho GSK3α monoclonal antibody (Cell Signaling Technology, clone #27).
(§6) D. SA-APC (Prozyme catalog no. MSS lot #896067).
(§7) E. Microfluor®B U Bottom Microtiter Plates (Dynex Technologies, Catalog no. 7205).
(§8) F. Discovery® HTRF Microplate Analyzer, Packard Instrument Company.
(§9) G. 100× Protease Inhibitor Cocktail (PIC): 1 mg/mL benzamidine, 0.5 mg/mL pepstatin, 0.5 mg/mL leupeptin, 0.5 mg/mL aprotinin.
(§10) H. 10× Assay Buffer: 500 mM HEPES, pH 7.5, 1% PEG, […], 1 mM EGTA, 1% BSA, 20 mM θ-Glycerol phosphate.
(§11) I. Quench Buffer: 50 mM HEPES pH 7.3, 16.6 mM EDTA, 0.1% BSA, 0.1% Triton X-100, 0.17 nM Lance labeled monoclonal antibody clone #27, 0.0067 mg/mL SA-APC
(§12) J. ATP/MgCl2 working solution: 1× Assay buffer, 1 mM DTT, 1×PIC, 125 mM KCl, 5% Glycerol, 25 mM MgCl2, 375 μM ATP
(§13) K. Enzyme working solution: 1× Assay buffer, 1 mM DTT, 1×PIC, 5% Glycerol, active Akt. The final enzyme concentrations were selected so that the assay was in a linear response range.
(§14) L. Peptide working solution: 1× Assay buffer, 1 mM DTT, 1×PIC, 5% Glycerol, 2 μM GSK3 biotinylated peptide #3928
(§15) The reaction is assembled by adding 16 μL of the ATP/MgCl2 working solution to the appropriate wells of a 96-well microliter plate. Inhibitor or vehicle (1.0 μL) is added followed by 10 μL of peptide working solution. The reaction is started by adding 13 μL of the enzyme working solution and mixing. The reaction is allowed to proceed for 50 min and then stopped by the addition of 60 μL HTRF quench buffer. The stopped reactions were incubated at room temperature for at least 30 min and then read on the Discovery instrument.

Akt2 kinase = target: T2, Akt2 kinase (Homo sapiens, UniProt P31751); assay: as above; type: biochemical
T2 construct: a middle T tag was added to the 5′ end of the full length Akt2 using the PCR primer; middle T tag (EYMPME) (N); biotin tag (from pS2neo vector); made in house; host or cells: Drosophila S2 cells
Description: as §1, §2, §3, §4, §5, §6, §7, §8, §9, §10, §11, §12, §13, §14, §15

T1 sequence (P31749 whole entry): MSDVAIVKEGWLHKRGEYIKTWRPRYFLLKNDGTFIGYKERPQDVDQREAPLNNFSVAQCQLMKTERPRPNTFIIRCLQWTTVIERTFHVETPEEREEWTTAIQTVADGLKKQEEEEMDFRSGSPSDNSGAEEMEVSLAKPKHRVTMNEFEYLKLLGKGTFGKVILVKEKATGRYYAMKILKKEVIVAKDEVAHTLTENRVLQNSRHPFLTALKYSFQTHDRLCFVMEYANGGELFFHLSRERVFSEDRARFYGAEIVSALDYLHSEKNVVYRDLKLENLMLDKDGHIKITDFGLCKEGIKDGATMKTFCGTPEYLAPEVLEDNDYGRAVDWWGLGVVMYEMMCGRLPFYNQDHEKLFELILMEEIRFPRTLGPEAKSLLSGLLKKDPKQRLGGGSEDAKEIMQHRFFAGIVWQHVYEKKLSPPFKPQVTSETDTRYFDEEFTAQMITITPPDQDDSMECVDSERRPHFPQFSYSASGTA
T2 sequence (P31751 whole entry): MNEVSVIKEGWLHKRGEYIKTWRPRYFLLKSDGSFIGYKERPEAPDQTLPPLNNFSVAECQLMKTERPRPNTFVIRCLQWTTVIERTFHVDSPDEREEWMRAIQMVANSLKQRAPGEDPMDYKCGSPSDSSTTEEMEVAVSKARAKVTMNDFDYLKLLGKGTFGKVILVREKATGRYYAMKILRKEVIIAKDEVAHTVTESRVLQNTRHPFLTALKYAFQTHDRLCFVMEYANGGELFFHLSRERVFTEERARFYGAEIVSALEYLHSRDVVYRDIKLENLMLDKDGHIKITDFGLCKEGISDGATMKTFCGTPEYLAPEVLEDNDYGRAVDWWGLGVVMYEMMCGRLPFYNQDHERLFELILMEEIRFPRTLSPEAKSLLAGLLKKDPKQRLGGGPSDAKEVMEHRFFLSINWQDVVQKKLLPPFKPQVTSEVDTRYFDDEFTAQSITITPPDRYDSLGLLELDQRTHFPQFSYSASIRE

| IC50 (Akt1 kinase) [nM] | IC50 (Akt2 kinase) [nM] | SMILES |
| --- | --- | --- |
| 4 | 29 | Cc1cc2ncc3cc(-c4ccccc4)c(-c4ccc([C@]5(N)C[C@@](O)(C6CC6)C5)cc4)nc3n2n1 [EXAMPLE 1-9, trans-3-amino-1-cyclopropyl-3-[4-(2-methyl-7-phenylpyrazolo[1,5-a]pyrido[3,2-e]pyrimidin-8-yl)phenyl]cyclobutanol] |
| 32.7 | 33.8 | NC1(c2ccc(-c3nc4c(ccn5c(C6CC6)nnc45)cc3-c3ccccc3)cc2)CCC1 [EXAMPLE 9-2, 1-{4-[3-cyclopropyl-8-phenyl[1,2,4]triazolo[4,3-h]-1,7-naphthyridin-9-yl)phenyl}cyclobutanamine] |
| 4.6 | 33.8 | c1ccc(-c2cc3cnc4nc(N5CCOCC5)nn4c3nc2-c2ccc(CN3CCC(c4nnc(-c5ccccn5)[nH]4)CC3)cc2)cc1 [EXAMPLE 12-3, 2-morpholin-4-yl-7-phenyl-8-(4-{[4-(5-pyridin-2-yl-4H-1,2,4-triazol-3-yl)piperidin-1-yl]methyl}phenyl)pyrido[3,2-e][1,2,4]triazolo[1,5-a]pyrimidine] |
| 37.2 | 578 | C=CCNC(=O)C1CCN(Cc2ccc(-c3nc4c(cnc5cc(C)nn54)cc3-c3ccccc3)cc2)CC1 [EXAMPLE 15-3, 2-methyl-7-phenyl-8-(4-{[4-(prop-2-en-1-ylcarbamoyl)piperidin-1-yl]methyl}phenyl)pyrazolo[1,5-a]pyrido[3,2-e]pyrimidine] |
